Experimental data reported in US20250100968A1, “BICYCLIC-HETEROCYCLE DERIVATIVES AND RELATED USES” (CENTESSA PHARMACEUTICALS (UK) LIMITED, priority 2022, published 2025).

Target: T1, human orexin type 2 receptor (hOX2R) (Homo sapiens, UniProt O43614)
T1 sequence (O43614 1-444): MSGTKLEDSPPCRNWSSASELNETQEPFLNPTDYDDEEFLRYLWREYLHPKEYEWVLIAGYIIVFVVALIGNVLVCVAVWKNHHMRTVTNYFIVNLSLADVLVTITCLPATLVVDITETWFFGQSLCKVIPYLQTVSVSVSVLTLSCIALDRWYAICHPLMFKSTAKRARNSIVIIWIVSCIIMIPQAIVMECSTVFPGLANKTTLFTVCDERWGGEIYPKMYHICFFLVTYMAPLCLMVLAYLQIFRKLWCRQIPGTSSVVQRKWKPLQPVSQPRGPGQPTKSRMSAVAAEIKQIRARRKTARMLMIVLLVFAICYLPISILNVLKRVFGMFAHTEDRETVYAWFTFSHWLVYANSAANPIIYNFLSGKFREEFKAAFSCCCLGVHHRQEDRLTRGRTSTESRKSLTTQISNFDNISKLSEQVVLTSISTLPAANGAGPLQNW
Test: cell-based
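Also: agonist activity in CHO cells stably expressing hOX2R, intracellular Ca2+ via Calcium 5 dye fluorescence area over 2 min, buffer-only as 0% and 10 nM orexin A as 100%.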

Experimental: Measurement of orexin type 2 receptor agonist activity. […] After removal of the medium, 50 μl of assay buffer 1 (0.1% bovine serum albumin (Sigma Aldrich), 20 mM HEPES (Molecular Dimensions), 250 mM probenecid (Sigma Aldrich), 1× Calcium 5 dye (Molecular Devices) in Hank's balanced salt solution (Invitrogen)) was added, and the cells were incubated for 60 min under the conditions of 37° C., 5% CO2. A test compound was dissolved in dimethyl sulfoxide (Sigma Aldrich) to 10 mM, and then diluted with assay buffer 2 (20 mM HEPES, Hank's balanced salt solution, 0.1% bovine serum albumin). For the reaction, a test compound solution (10 μl) was added using Fluorescent Imaging Plate Reader TETRA (FLIPR TETRA: manufactured by Molecular Devices), a fluorescence value (excitation wavelength 488 nm, measurement wavelength 570 nm) of each well was measured every one second for 2 min, and the agonist activity was determined using the area of the fluorescence value as an indicator of intracellular Ca^2+ concentration. The agonist activity of the test compound was calculated assuming that the fluorescence value of the well added with only the dilution buffer was 0% and the fluorescence value of the well added with 10 nM human orexin A (Tocris) buffer was 100%.

Compound | EC50
O=C(C(O)CF)N1CC2(CC2)[C@H](NS(=O)(=O)C(F)F)[C@@H]1Cc1cccc(-c2cccc(F)c2)c1F (mixture of isomers) [compound 29, N-((6S,7S)-6-((2,3′-difluoro-[1,1′-biphenyl]-3-yl)methyl)-5-((RS)-3-fluoro-2-hydroxypropanoyl)-5-azaspiro[2.4]heptan-7-yl)-1,1-difluoromethanesulfonamide] | 0.0631 to 1 nM
C[C@@H](F)S(=O)(=O)N[C@@H]1[C@H](Cc2cccc(-c3cc(F)cc(F)c3)c2F)N(C(=O)C2CCO2)CC12CC2 (mixture of isomers) [compound 43, (S)-1-fluoro-N-((6S,7S)-5-((RS)-oxetane-2-carbonyl)-6-((2,3′,5′-trifluoro-[1,1′-biphenyl]-3-yl)methyl)-5-azaspiro[2.4]heptan-7-yl)ethane-1-sulfonamide] | 1 to 10 nM
C[C@@](O)(CF)C(=O)N1CC2(CC2)[C@H](NS(=O)(=O)C(F)F)[C@@H]1Cc1cccc(-c2cc(F)cc(F)c2)c1F [compound 1, 1,1-difluoro-N-((6S,7S)-5-((S)-3-fluoro-2-hydroxy-2-methylpropanoyl)-6-((2,3′,5′-trifluoro-[1,1′-biphenyl]-3-yl)methyl)-5-azaspiro[2.4]heptan-7-yl)methanesulfonamide] | 1 to 10 nM
C[C@@](O)(C(=O)N1CC2(CC2)[C@H](NS(=O)(=O)CF)[C@@H]1Cc1cccc(-c2ccccc2)c1F)C1CC1 [compound 2, N-((6S,7S)-5-((S)-2-cyclopropyl-2-hydroxypropanoyl)-6-((2-fluoro-[1,1′-biphenyl]-3-yl)methyl)-5-azaspiro[2.4]heptan-7-yl)-1-fluoromethanesulfonamide] | 10 to 100 nM
O=C([C@@H](O)C1CC1)N1CC2(CC2)[C@H](NS(=O)(=O)CF)[C@@H]1Cc1cccc(-c2cc(F)cc(F)c2)c1F [compound 3, N-((6S,7S)-5-((S)-2-cyclopropyl-2-hydroxyacetyl)-6-((2,3′,5′-trifluoro-[1,1′-biphenyl]-3-yl)methyl)-5-azaspiro[2.4]heptan-7-yl)-1-fluoromethanesulfonamide] | 10 to 100 nM
C[C@@H](NC(=O)N1CC2(CC2)[C@H](NS(=O)(=O)CF)[C@@H]1Cc1cccc(-c2cc(F)cc(F)c2)c1F)C(F)F [compound 4, (6S,7S)-N-((R)-1,1-difluoropropan-2-yl)-7-((fluoromethyl)sulfonamido)-6-((2,3′,5′-trifluoro-[1,1′-biphenyl]-3-yl)methyl)-5-azaspiro[2.4]heptane-5-carboxamide] | 1 to 10 nM
N#CC1(C(=O)N2CC3(CC3)[C@H](NS(=O)(=O)CF)[C@@H]2Cc2cccc(-c3ccccc3)c2F)CC1 [compound 5, N-((6S,7S)-5-(1-cyanocyclopropane-1-carbonyl)-6-((2-fluoro-[1,1′-biphenyl]-3-yl)methyl)-5-azaspiro[2.4]heptan-7-yl)-1-fluoromethanesulfonamide] | 0.0631 to 1 nM
C[C@](O)(C(=O)N1CC2(CC2)[C@H](NS(=O)(=O)CF)[C@@H]1Cc1cccc(-c2cccc(F)c2)c1F)C(F)F [compound 6, N-((6S,7S)-5-((S)-3,3-difluoro-2-hydroxy-2-methylpropanoyl)-6-((2,3′-difluoro-[1,1′-biphenyl]-3-yl)methyl)-5-azaspiro[2.4]heptan-7-yl)-1-fluoromethanesulfonamide] | 0.0631 to 1 nM
O=C([C@H](O)CF)N1CC2(CC2)[C@H](NS(=O)(=O)C(F)F)[C@@H]1Cc1cccc(-c2cc(F)cc(F)c2)c1F [compound 8, 1,1-difluoro-N-((6S,7S)-5-((S)-3-fluoro-2-hydroxypropanoyl)-6-((2,3′,5′-trifluoro-[1,1′-biphenyl]-3-yl)methyl)-5-azaspiro[2.4]heptan-7-yl)methanesulfonamide] | 1 to 10 nM
O=C([C@H]1CCO1)N1CC2(CC2)[C@H](NS(=O)(=O)C2(F)CC2)[C@@H]1Cc1cccc(-c2ccccc2)c1F [compound 10, 1-fluoro-N-((6S,7S)-6-((2-fluoro-[1,1′-biphenyl]-3-yl)methyl)-5-((R)-oxetane-2-carbonyl)-5-azaspiro[2.4]heptan-7-yl)cyclopropane-1-sulfonamide] | 0.0631 to 1 nM
N#CC1(C(=O)N2CC3(CC3)[C@H](NS(=O)(=O)CF)[C@@H]2Cc2cc(F)cc(-c3ccccc3)c2F)CCC1 [compound 13, N-((6S,7S)-5-(1-cyanocyclobutane-1-carbonyl)-6-((2,5-difluoro-[1,1′-biphenyl]-3-yl)methyl)-5-azaspiro[2.4]heptan-7-yl)-1-fluoromethanesulfonamide] | 0.0631 to 1 nM
O=C(NCC(F)F)N1CC2(CC2)[C@H](NS(=O)(=O)CF)[C@@H]1Cc1cccc(-c2cc(F)cc(F)c2)c1F [compound 15, (6S,7S)-N-(2,2-difluoroethyl)-7-((fluoromethyl)sulfonamido)-6-((2,3′,5′-trifluoro-[1,1′-biphenyl]-3-yl)methyl)-5-azaspiro[2.4]heptane-5-carboxamide] | 1 to 10 nM
CC(C)S(=O)(=O)N[C@@H]1[C@H](Cc2cc(F)cc(-c3cc(F)cc(F)c3)c2F)N(C(=O)[C@H]2CCO2)CC12CC2 [compound 20, N-((6S,7S)-5-((R)-oxetane-2-carbonyl)-6-((2,3′,5,5′-tetrafluoro-[1,1′-biphenyl]-3-yl)methyl)-5-azaspiro[2.4]heptan-7-yl)propane-2-sulfonamide] | 0.0631 to 1 nM
C[C@@H](F)C(=O)N1CC2(CC2)[C@H](NS(=O)(=O)CF)[C@@H]1Cc1cc(F)cc(-c2cccc(F)c2)c1F [compound 21, 1-fluoro-N-((6S,7S)-5-((R)-2-fluoropropanoyl)-6-((2,3′,5-trifluoro-[1,1′-biphenyl]-3-yl)methyl)-5-azaspiro[2.4]heptan-7-yl)methanesulfonamide] | 0.0631 to 1 nM
O=C([C@H](O)CF)N1CC2(CC2)[C@H](NS(=O)(=O)CF)[C@@H]1Cc1cccc(-c2cc(F)cc(F)c2)c1F [compound 23, 1-fluoro-N-((6S,7S)-5-((S)-3-fluoro-2-hydroxypropanoyl)-6-((2,3′,5′-trifluoro-[1,1′-biphenyl]-3-yl)methyl)-5-azaspiro[2.4]heptan-7-yl)methanesulfonamide] | 1 to 10 nM
O=C(NCC(F)F)N1CC2(CC2)[C@H](NS(=O)(=O)C(F)F)[C@@H]1Cc1cc(F)cc(-c2cc(F)cc(F)c2)c1F [compound 25, (6S,7S)-N-(2,2-difluoroethyl)-7-((difluoromethyl)sulfonamido)-6-((2,3′,5,5′-tetrafluoro-[1,1′-biphenyl]-3-yl)methyl)-5-azaspiro[2.4]heptane-5-carboxamide] | 0.0631 to 1 nM
COCC1(C(=O)N2CC3(CC3)[C@H](NS(C)(=O)=O)[C@@H]2Cc2cccc(-c3ccccc3)c2F)CC1 [compound 26, N-((6S,7S)-6-((2-fluoro-[1,1′-biphenyl]-3-yl)methyl)-5-(1-(methoxymethyl)cyclopropane-1-carbonyl)-5-azaspiro[2.4]heptan-7-yl)methanesulfonamide] | 0.0631 to 1 nM
O=C([C@@H](O)C1CC1)N1CC2(CC2)[C@H](NS(=O)(=O)C(F)F)[C@@H]1Cc1cc(F)cc(-c2ccccc2)c1F [compound 27, N-((6S,7S)-5-((S)-2-cyclopropyl-2-hydroxyacetyl)-6-((2,5-difluoro-[1,1′-biphenyl]-3-yl)methyl)-5-azaspiro[2.4]heptan-7-yl)-1,1-difluoromethanesulfonamide] | 0.0631 to 1 nM
O=C(NCC(F)F)N1CC2(CC2)[C@H](NS(=O)(=O)C(F)F)[C@@H]1Cc1cccc(-c2cc(F)cc(F)c2)c1F [compound 28, (6S,7S)-N-(2,2-difluoroethyl)-7-((difluoromethyl)sulfonamido)-6-((2,3′,5′-trifluoro-[1,1′-biphenyl]-3-yl)methyl)-5-azaspiro[2.4]heptane-5-carboxamide] | 0.0631 to 1 nM
CC[C@@](C)(O)C(=O)N1CC2(CC2)[C@H](NS(=O)(=O)CF)[C@@H]1Cc1cccc(-c2cccc(F)c2)c1F [compound 30, N-((6S,7S)-6-((2,3′-difluoro-[1,1′-biphenyl]-3-yl)methyl)-5-((R)-2-hydroxy-2-methylbutanoyl)-5-azaspiro[2.4]heptan-7-yl)-1-fluoromethanesulfonamide] | 0.0631 to 1 nM
C[C@@H](F)C(=O)N1CC2(CC2)[C@H](NS(=O)(=O)C(F)F)[C@@H]1Cc1cccc(-c2cc(F)cc(F)c2)c1F [compound 31, 1,1-difluoro-N-((6S,7S)-5-((R)-2-fluoropropanoyl)-6-((2,3′,5′-trifluoro-[1,1′-biphenyl]-3-yl)methyl)-5-azaspiro[2.4]heptan-7-yl)methanesulfonamide] | 1 to 10 nM
O=C([C@@H](O)C1CC1)N1CC2(CC2)[C@H](NS(=O)(=O)C(F)F)[C@@H]1Cc1cccc(-c2cc(F)cc(F)c2)c1F [compound 32, N-((6S,7S)-5-((S)-2-cyclopropyl-2-hydroxyacetyl)-6-((2,3′,5′-trifluoro-[1,1′-biphenyl]-3-yl)methyl)-5-azaspiro[2.4]heptan-7-yl)-1,1-difluoromethanesulfonamide] | 1 to 10 nM
CC[C@](C)(O)C(=O)N1CC2(CC2)[C@H](NS(=O)(=O)CF)[C@@H]1Cc1cccc(-c2cccc(F)c2)c1F [compound 33, N-((6S,7S)-6-((2,3′-difluoro-[1,1′-biphenyl]-3-yl)methyl)-5-((S)-2-hydroxy-2-methylbutanoyl)-5-azaspiro[2.4]heptan-7-yl)-1-fluoromethanesulfonamide] | 0.0631 to 1 nM
N#CC1(C(=O)N2CC3(CC3)[C@H](NS(=O)(=O)CF)[C@@H]2Cc2cccc(-c3ccccc3)c2F)COC1 [compound 34, N-((6S,7S)-5-(3-cyanooxetane-3-carbonyl)-6-((2-fluoro-[1,1′-biphenyl]-3-yl)methyl)-5-azaspiro[2.4]heptan-7-yl)-1-fluoromethanesulfonamide] | 0.0631 to 1 nM
